Assay results from US11873298B2, “Compounds and uses thereof” (JANSSEN PHARMACEUTICA NV, priority 2017, dated 2024).

Assays:
Ole1 = molecular target: T1, Ole1 (Saccharomyces cerevisiae, UniProt P21147); assay: Growth inhibition of yeast strain expressing Ole1 as sole desaturase; type: cell-based; settings: yeast strain expressing Ole1 as sole desaturase
T1 construct: expressed in transfected cells; host or cells: S. cerevisiae ole1Δ strain (W303 pdr1Δ pdr3Δ background), plasmid pRS316 with TDH3 promoter and CYC1 terminator
T1 sequence (P21147 1-510): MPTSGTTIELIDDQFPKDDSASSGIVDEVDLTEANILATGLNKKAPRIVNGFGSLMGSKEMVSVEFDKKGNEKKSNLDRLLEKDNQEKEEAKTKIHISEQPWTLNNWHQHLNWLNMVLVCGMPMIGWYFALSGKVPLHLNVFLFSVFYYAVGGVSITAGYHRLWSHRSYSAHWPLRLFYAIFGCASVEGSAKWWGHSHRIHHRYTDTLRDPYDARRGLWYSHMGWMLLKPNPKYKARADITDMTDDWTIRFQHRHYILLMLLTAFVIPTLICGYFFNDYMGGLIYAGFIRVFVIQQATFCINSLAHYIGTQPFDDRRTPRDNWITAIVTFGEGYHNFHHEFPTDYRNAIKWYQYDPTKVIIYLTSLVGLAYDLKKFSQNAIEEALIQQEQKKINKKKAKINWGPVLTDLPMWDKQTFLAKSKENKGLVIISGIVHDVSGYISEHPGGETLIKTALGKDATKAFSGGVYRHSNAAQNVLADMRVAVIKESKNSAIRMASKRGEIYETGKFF
Outline: (§1)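 Yeast ole1Δ strain (W303 pdr1Δ pdr3Δ background) carrying plasmid-borne Ole1, SCD1 or SCD5 as sole desaturase was grown in uracil-lacking media, pre-cultured in raffinose for 6 h, then seeded in galactose medium with compound in DMSO. Growth was read as OD600 after 30° C. incubation: 24 h for Ole1, 40 h for SCD1/SCD5.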

[1] = system: yeast strains expressing the human ApoE4; assay: Yeast ApoE4 toxicity rescue assay (OD600 growth); settings: 24 h; for EC50: read-out: ApoE4 EC50; for Emax: read-out: ApoE4 Emax
[2] = system: yeast strains expressing the human α-synuclein; assay: Yeast α-synuclein toxicity rescue assay (OD600 growth); settings: 40 h; for EC50: read-out: α-Syn EC50; for Emax: read-out: α-Syn Emax
SCD1 = molecular target: T2, SCD1 (Homo sapiens, UniProt O00767); assay: Growth inhibition of humanized yeast strain expressing SCD1 as sole desaturase; type: cell-based; settings: humanized yeast strain expressing SCD1
T2 construct: host or cells: S. cerevisiae ole1Δ strain (W303 pdr1Δ pdr3Δ background), plasmid pRS316 with TDH3 promoter and CYC1 terminator
T2 sequence (O00767 1-359): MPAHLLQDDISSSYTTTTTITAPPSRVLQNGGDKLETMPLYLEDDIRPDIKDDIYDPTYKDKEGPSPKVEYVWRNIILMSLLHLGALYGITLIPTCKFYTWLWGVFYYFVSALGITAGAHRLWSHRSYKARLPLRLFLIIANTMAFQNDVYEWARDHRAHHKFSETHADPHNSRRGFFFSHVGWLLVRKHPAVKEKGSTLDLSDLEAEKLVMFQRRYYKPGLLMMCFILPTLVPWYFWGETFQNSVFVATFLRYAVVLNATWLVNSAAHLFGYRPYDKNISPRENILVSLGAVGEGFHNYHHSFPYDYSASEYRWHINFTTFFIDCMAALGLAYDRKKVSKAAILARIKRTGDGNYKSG
Outline: as §1

SCD5 = molecular target: T3, SCD5 (Homo sapiens, UniProt Q86SK9); assay: Growth inhibition of humanized yeast strain expressing SCD5 as sole desaturase; type: cell-based; settings: humanized yeast strain expressing SCD5
T3 construct: host or cells: S. cerevisiae ole1Δ strain (W303 pdr1Δ pdr3Δ background), plasmid pRS316 with TDH3 promoter and CYC1 terminator
T3 sequence (Q86SK9 1-330): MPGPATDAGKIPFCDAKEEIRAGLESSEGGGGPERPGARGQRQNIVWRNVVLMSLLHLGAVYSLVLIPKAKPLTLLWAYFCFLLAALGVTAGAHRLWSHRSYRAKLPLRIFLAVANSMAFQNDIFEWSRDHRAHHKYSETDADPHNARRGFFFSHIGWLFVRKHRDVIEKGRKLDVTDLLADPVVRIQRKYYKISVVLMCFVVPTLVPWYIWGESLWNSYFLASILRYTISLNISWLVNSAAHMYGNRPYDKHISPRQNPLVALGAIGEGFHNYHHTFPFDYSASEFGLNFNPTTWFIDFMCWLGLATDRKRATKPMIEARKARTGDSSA
Outline: as §1

Compound	IC50 (Ole1)	EC50 [1]	Emax [1]	EC50 [2]	Emax [2]	IC50 (SCD1)	SCD1 % Max Inhibition (SCD1)	IC50 (SCD5)	SCD5 % Max Inhibition (SCD5)	OLE1 % Max Inhibition (Ole1)
COc1ccc(-c2noc(C3CCN(C(=O)[C@H]4CC(=O)N(c5ccccc5)C4)CC3)n2)cc1OC [compound 65]	> 45 µM	0.987 µM	779%	36 nM	643%	–	–	–	–	–
CC1(C)CC(=O)c2c(O)cc(OCC(=O)N3CCC(c4nc(-c5ccccc5)no4)CC3)cc2O1 [compound 76]	–	14.8 µM	162%	9920 nM	76%	–	–	–	–	–
CCOc1ccc(-c2noc(C3CCN(C(=O)C4CC(=O)N(c5ccccc5)C4)CC3)n2)cc1OC (stereo not drawn) [compound 84]	–	0.956 µM	866%	60 nM	463%	–	–	–	–	–
COc1ccc(-c2noc(C3CCN(C(=O)Cc4cncc(C)n4)CC3)n2)cc1OC [Compound 45]	–	29.3 µM	19%	26000 nM	121%	–	–	–	–	–
O=C(NC1CC1c1ccccc1)N1CCC(c2nc(-c3ccc4ccccc4n3)no2)CC1 (stereo not drawn) [compound 82]	–	16.8 µM	40%	–	–	–	–	–	–	–
COc1ccc(-c2noc(C3CCN(C(=O)COc4cc(O)c5c(c4)OC(C)(C)CC5=O)CC3)n2)cc1OC [compound 77]	–	–	436%	–	345%	–	–	–	–	–
CCOc1ncc(-c2noc(C3CCN(C(=O)C4CC(=O)N(c5ccccc5)C4)CC3)n2)cc1OC (stereo not drawn) [Compound 130]	> 45 µM	–	–	1440 nM	328%	> 45 µM	97.82%	> 45 µM	99.82%	2.75%
Cc1n[nH]c2cc(-c3noc(C4CCN(C(=O)CNC(=O)c5ccccc5)CC4)n3)ccc12 [compound 93]	> 45 µM	–	–	1800 nM	626%	> 45 µM	–	> 45 µM	–	–
Cc1nn(C)c2nc(-c3noc(C4CCN(C(=O)CN5Cc6ccccc6C5=O)CC4)n3)ccc12 [Compound 146]	> 45 µM	–	–	1940 nM	516%	37.8 µM	60.81%	> 45 µM	25.62%	3.28%
CCOc1ccc(-c2noc(C3CCN(C(=O)[C@H]4CN(c5ccccc5)C(=O)O4)CC3)n2)cc1OC [Compound 148]	> 45 µM	–	–	13700 nM	258%	> 45 µM	79.55%	> 45 µM	86.53%	99.90%
COc1ccc(-c2noc(C3CCN(CCNC(=O)c4ccccc4)CC3)n2)cc1OC [Compound 32]	> 45 µM	–	–	9880 nM	41%	> 45 µM	84.16%	> 45 µM	80.17%	108.22%
CCN1C(=O)COc2cc(-c3noc(C4CCN(C(=O)CNC(=O)c5ccccc5)CC4)n3)ccc21 [Compound 111]	> 45 µM	–	–	339 nM	289%	> 45 µM	76.39%	> 45 µM	32.73%	38.26%
